Assay results reported in ChEMBL document CHEMBL1687859, “Therapeutic efficacy of halocidin-derived peptide HG1 in a mouse model of surgical wound infection with methicillin-resistant Staphylococcus aureus” (Antimicrob Agents Chemother, 2011).
Converted amounts (≈) assume the structure as drawn. The source made the active and inactive calls. The calls are words filed in the database; no cut-off is given here. Bridge positions count the residues as written; N and C are the ends. Peptide text beside a SMILES is read from it. I, II: the chains in the order shown.

What was measured:
[1] = tested on: Zone of skin; assay: Drug penetration in ICR mouse skin administered topically using plastic cylinder by HPLC analysis; assay type: ADME, tissue-based; conditions: in vivo, topical_or_ocular
[2] = tested on: Zone of skin; assay: Drug penetration in ICR mouse skin administered topically using plastic cylinder by immunoblotting; assay type: ADME, tissue-based; conditions: in vivo, topical_or_ocular
[3] = tested on: Zone of skin; assay: Drug penetration in ICR mouse skin administered topically using plastic cylinder by fluorescence microscopy; assay type: ADME, tissue-based; conditions: in vivo, topical_or_ocular
[4] = tested on: Staphylococcus aureus; assay: Antibacterial activity against methicillin-resistant Staphylococcus aureus; assay type: functional
[5] = tested on: Staphylococcus aureus; assay: Antibacterial activity against methicillin-resistant Staphylococcus aureus infected in ICR mouse surgical wound model assessed as reduction of CFU administered topically every 12 hrs for 5 days; assay type: functional
[6] = tested on: Zone of skin; assay: Drug penetration in ethidium bromide-labeled methicillin-resistant Staphylococcus aureus infected ICR mouse skin administered topically after 4 hrs by confocal microscopic analysis; assay type: ADME, tissue-based; conditions: in vivo, topical_or_ocular
[7] = tested on: Staphylococcus aureus; assay: Drug binding to ethidium bromide-labeled methicillin-resistant Staphylococcus aureus infected in ICR mouse skin administered topically after 4 hrs by confocal microscopic analysis; assay type: ADME, organism-based; conditions: in vivo, topical_or_ocular
[8] = tested on: Staphylococcus aureus; assay: Antibacterial activity against ethidium bromide-labeled methicillin-resistant Staphylococcus aureus infected in ICR mouse skin administered topically after 4 hrs by confocal microscopic analysis; assay type: functional, organism-based

For `CC(C)C[C@H](NC(=O)CNC(=O)[C@H](Cc1cnc[nH]1)NC(=O)[C@H](Cc1cnc[nH]1)NC(=O)[C@H](CC(C)C)NC(=O)[C@H](CC(C)C)NC(=O)[C@H](C)NC(=O)[C@H](CC(N)=O)NC(=O)[C@H](CC(C)C)NC(=O)[C@H](Cc1c[nH]c2ccccc12)NC(=O)[C@@H](N)CCCCN)C(=O)N[C@@H](CC(N)=O)C(=O)N[C@@H](CSSC[C@H](NC(=O)[C@H](CC(N)=O)NC(=O)[C@H](CC(C)C)NC(=O)CNC(=O)[C@H](Cc1cnc[nH]1)NC(=O)[C@H](Cc1cnc[nH]1)NC(=O)[C@H](CC(C)C)NC(=O)[C@H](CC(C)C)NC(=O)[C@H](C)NC(=O)[C@H](CC(N)=O)NC(=O)[C@H](CC(C)C)NC(=O)[C@H](Cc1c[nH]c2ccccc12)NC(=O)[C@@H](N)CCCCN)C(=O)N[C@@H](C)C(=O)N[C@@H](CCCCN)C(=O)NCC(=O)N[C@H](C(=O)N[C@@H](CC(C)C)C(=O)N[C@@H](C)C(N)=O)C(C)C)C(=O)N[C@@H](C)C(=O)N[C@@H](CCCCN)C(=O)NCC(=O)N[C@H](C(=O)N[C@@H](CC(C)C)C(=O)N[C@@H](C)C(N)=O)C(C)C` (I: H-KWLNALLHHGLNCAKGVLA-NH2 / II: H-KWLNALLHHGLNCAKGVLA-NH2; disulfide I:13-II:13), the Drug uptake [1] was “Active”, the Drug uptake [2] was “Active” and the Drug uptake [3] was “Active”. For the same compound, the MIC [4] was 4 µg/mL (≈ 0.973 µM), the CFU [5] was 3 and the Drug uptake [6] was “Active”. For the same compound, the Activity [7] was “Active” and the Activity [8] was “Active”.
